Key:
[1] = target: T1, D(2) dopamine receptor (Homo sapiens, UniProt P14416); assay: biochemical
[2] = target: T2, D(3) dopamine receptor (Homo sapiens, UniProt P35462); assay: biochemical
[3] = target: T3, D(4) dopamine receptor (Homo sapiens, UniProt P21917)
T3 sequence (P21917 whole entry): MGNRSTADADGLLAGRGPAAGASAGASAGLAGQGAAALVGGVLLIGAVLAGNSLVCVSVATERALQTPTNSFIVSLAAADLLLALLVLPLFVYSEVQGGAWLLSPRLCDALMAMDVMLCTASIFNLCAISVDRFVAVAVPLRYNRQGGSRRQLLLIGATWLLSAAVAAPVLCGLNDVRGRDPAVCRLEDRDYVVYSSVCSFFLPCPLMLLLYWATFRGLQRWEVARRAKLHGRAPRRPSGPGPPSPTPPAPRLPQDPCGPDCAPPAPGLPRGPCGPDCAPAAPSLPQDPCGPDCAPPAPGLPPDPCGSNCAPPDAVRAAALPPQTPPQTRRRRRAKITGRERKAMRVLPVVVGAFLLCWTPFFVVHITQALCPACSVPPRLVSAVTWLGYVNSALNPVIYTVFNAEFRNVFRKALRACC

[4] = target: D(1A) dopamine receptor (Bos taurus, UniProt Q95136)
Chain of D(1A) dopamine receptor (Q95136 whole entry): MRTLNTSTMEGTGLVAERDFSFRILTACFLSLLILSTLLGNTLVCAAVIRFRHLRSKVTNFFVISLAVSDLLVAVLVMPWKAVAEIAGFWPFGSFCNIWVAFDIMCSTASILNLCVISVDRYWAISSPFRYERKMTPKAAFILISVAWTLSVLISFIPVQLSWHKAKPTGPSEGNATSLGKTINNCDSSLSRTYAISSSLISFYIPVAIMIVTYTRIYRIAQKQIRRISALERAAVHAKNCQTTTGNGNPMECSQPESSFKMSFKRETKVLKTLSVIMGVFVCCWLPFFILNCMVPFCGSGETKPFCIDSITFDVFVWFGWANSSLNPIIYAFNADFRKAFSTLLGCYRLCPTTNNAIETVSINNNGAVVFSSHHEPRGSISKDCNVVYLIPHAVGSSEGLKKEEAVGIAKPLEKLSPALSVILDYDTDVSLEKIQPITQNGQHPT

[5] = target: T1, D(2) dopamine receptor; assay: biochemical; remark: listed apart in the source
[6] = target: T2, D(3) dopamine receptor; conditions: cho
[7] = target: T1, D(2) dopamine receptor; assay: Ability to displace [3H]spiperone [0.5 nM (Kd=0.2-0.45 nM)] from human cloned dopamine receptor D2S expressed in CHO cells at 0.5 nM concentration; type: cell-based

T2 sequence (P35462 whole entry): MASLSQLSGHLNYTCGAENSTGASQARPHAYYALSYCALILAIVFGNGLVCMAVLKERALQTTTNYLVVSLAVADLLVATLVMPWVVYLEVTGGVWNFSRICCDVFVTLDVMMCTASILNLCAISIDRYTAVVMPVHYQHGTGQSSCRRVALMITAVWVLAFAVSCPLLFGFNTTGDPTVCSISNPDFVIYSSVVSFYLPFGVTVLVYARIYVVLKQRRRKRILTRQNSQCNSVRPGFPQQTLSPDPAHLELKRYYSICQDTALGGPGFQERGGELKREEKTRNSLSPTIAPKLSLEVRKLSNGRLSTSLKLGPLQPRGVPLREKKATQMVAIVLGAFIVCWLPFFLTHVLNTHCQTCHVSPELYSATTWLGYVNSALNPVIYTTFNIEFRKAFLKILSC
T1 sequence (P14416 whole entry): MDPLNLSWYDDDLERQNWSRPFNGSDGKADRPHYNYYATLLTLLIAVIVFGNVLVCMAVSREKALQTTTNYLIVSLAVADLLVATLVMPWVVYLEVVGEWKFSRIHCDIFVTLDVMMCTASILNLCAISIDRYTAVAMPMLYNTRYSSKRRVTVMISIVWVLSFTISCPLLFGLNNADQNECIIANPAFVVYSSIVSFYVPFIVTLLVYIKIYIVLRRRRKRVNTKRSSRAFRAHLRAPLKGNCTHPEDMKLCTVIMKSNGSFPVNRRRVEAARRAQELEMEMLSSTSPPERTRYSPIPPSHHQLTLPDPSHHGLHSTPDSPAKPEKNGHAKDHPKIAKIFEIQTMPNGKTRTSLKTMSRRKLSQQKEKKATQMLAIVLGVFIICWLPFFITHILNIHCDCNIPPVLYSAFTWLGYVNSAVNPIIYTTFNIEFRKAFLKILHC

Row | Structure (SMILES) | Ki [1] | Ki [2] | Ki [3] | Ki [4] | Ki [5] | Ki [6] | Ki [7]
1 | CNc1cc(OC)c(C(=O)N[C@H]2CCN(Cc3ccccc3)C[C@@H]2C)cc1Cl (stereo in doubt) | 6.4 nM | 13 nM | 1.6 nM | 4400 nM | 8 nM | – | –
2 | CNc1cc(OC)c(C(=O)N[C@H]2CN(Cc3ccccc3)C[C@@H]2C)cc1Cl (stereo in doubt) | 11 nM | 27 nM | 4.3 nM | 5300 nM | 15 nM | – | –
3 | COc1cc(N)c(Cl)cc1C(=O)N[C@H]1CCCN(Cc2ccccc2)C1 (stereo in doubt) | 4200 nM | 8700 nM | 530 nM | 13000 nM | 7900 nM | – | –
4 | C#Cc1cc(C(=O)N[C@@H]2CCN(Cc3ccccc3)C2)c(OC)c2ccccc12 (stereo in doubt) | 250 nM | 79 nM | 7 nM | 6100 nM | 500 nM | – | –
5 | COc1c(C(=O)NCC[C@@H]2CCN(Cc3ccccc3)C2)cc(Br)c2ccccc12 (stereo in doubt) | 2800 nM | 1000 nM | 610 nM | 2100 nM | 2500 nM | – | –
6 | COc1c(C(=O)N[C@H]2CN(Cc3ccccc3)C[C@H]2C)cc(Br)c2ccccc12 (stereo in doubt) | – | 130 nM | 27 nM | 4000 nM | 290 nM | – | 170 nM
7 | COc1c(C(=O)N[C@@H]2CCN(Cc3ccccc3)C2)cc(I)c2ccccc12 (stereo in doubt) | 70 nM | 33 nM | 3.3 nM | 6100 nM | 190 nM | – | –
8 | COc1c(C(=O)NC[C@@H]2CCN(Cc3ccccc3)C2)cc(Br)c2ccccc12 (stereo in doubt) | 870 nM | 1000 nM | 78 nM | 2900 nM | 1300 nM | – | –
9 | CNc1cc(OC)c(C(=O)N[C@H]2CCCN(Cc3ccccc3)C2)cc1Cl (stereo in doubt) | 210 nM | 1500 nM | 64 nM | 5600 nM | 250 nM | – | –
10 | COc1cc(N)c(Cl)cc1C(=O)N[C@H]1CCN(Cc2ccccc2)C[C@@H]1C (stereo in doubt; 3a) | 340 nM | 2200 nM | 35 nM | 19000 nM | 470 nM | – | –
11 | COc1c(C(=O)N[C@H]2CN(Cc3ccccc3)C[C@@H]2C)cc(Br)c2ccccc12 (stereo in doubt; 3d) | 700 nM | 740 nM | 17 nM | 8400 nM | 1000 nM | – | –
12 | CNc1cc(OC)c(C(=O)N[C@H]2CN(Cc3ccccc3)C[C@H]2C)cc1Cl (stereo in doubt; 3e) | 3 nM | 100 nM | 0.23 nM | 4100 nM | 3.7 nM | – | –
13 | COc1c(C(=O)N[C@H]2CN(Cc3ccccc3)C[C@H]2C)cc(Br)c2ccccc12 (stereo in doubt; 3f) | 135 nM | 390 nM | 2.7 nM | 4700 nM | 200 nM | – | –
14 | COc1c(C(=O)N[C@@H]2CCN(Cc3ccccc3)C2)cc(Br)c2ccccc12 (stereo in doubt; 3g) | – | 250 nM | 5 nM | 7200 nM | 180 nM | – | 130 nM
15 | COc1c(C(=O)NC[C@@H]2CCN(Cc3ccccc3)C2)cc(Br)c2ccccc12 (stereo in doubt; 3k) | 420 nM | 410 nM | 130 nM | 2100 nM | 640 nM | – | –

The remaining compounds from weak to strong by Ki [3], led by results:

Row | Ki [1] | Ki [2] | Ki [3] | Ki [4] | Ki [5] | Ki [6] | Ki [7] | Structure (SMILES)
16 | 5500 nM | – | 1500 nM | 3300 nM | 7700 nM | 1000 nM | – | COc1c(C(=O)N[C@@H]2CCN(Cc3ccccc3)C2)cc(C#Cc2ccccc2)c2ccccc12 (stereo in doubt)
17 | 4000 nM | 1000 nM | 500 nM | 2800 nM | 6400 nM | – | – | COc1c(C(=O)N[C@@H]2CCN(Cc3ccccc3)C2)cc(C#Cc2ccccc2)c2ccccc12 (stereo in doubt; 3j)
18 | 1900 nM | 580 nM | 500 nM | 1700 nM | 2000 nM | – | – | COc1c(C(=O)NCC[C@@H]2CCN(Cc3ccccc3)C2)cc(Br)c2ccccc12 (stereo in doubt; 3l)
19 | 1100 nM | 2900 nM | 200 nM | 17000 nM | 1600 nM | – | – | COc1cc(N)c(Cl)cc1C(=O)N[C@H]1CCCN(Cc2ccccc2)C1 (stereo in doubt; 5a)
20 | 260 nM | 140 nM | 59 nM | 4200 nM | 490 nM | – | – | COc1c(C(=O)N[C@H]2CN(Cc3ccccc3)C[C@@H]2C)cc(Br)c2ccccc12 (stereo in doubt)
21 | 130 nM | 560 nM | 25 nM | 10000 nM | 170 nM | – | – | CNc1cc(OC)c(C(=O)N[C@H]2CCCN(Cc3ccccc3)C2)cc1Cl (stereo in doubt; 5b)
22 | 150 nM | 84 nM | 21 nM | 7400 nM | 150 nM | – | – | COc1c(C(=O)N[C@@H]2CCN(Cc3ccccc3)C2)cc(Br)c2ccccc12 (stereo in doubt)
23 | 15 nM | 160 nM | 8.3 nM | 6800 nM | 24 nM | – | – | CNc1cc(OC)c(C(=O)NC2CCN(Cc3ccccc3)CC2)cc1Cl
24 | 7.4 nM | 20 nM | 7.4 nM | 7100 nM | 8.6 nM | – | – | COc1cc(N)c(Cl)cc1C(=O)N[C@H]1CCN(Cc2ccccc2)C[C@@H]1C (stereo in doubt)
25 | 39 nM | 510 nM | 4.7 nM | 8200 nM | 54 nM | – | – | CNc1cc(OC)c(C(=O)N[C@H]2CCN(Cc3ccccc3)C[C@@H]2C)cc1Cl (stereo in doubt; 3b)
26 | 82 nM | 86 nM | 2.5 nM | 3300 nM | 190 nM | – | – | C#Cc1cc(C(=O)N[C@@H]2CCN(Cc3ccccc3)C2)c(OC)c2ccccc12 (stereo in doubt; 3i)
27 | 23 nM | 34 nM | 1.2 nM | 3000 nM | 60 nM | – | – | COc1c(C(=O)N[C@@H]2CCN(Cc3ccccc3)C2)cc(I)c2ccccc12 (stereo in doubt; 3h)
28 | 2 nM | 1.8 nM | 0.84 nM | 4700 nM | 2.3 nM | – | – | CNc1cc(OC)c(C(=O)N[C@H]2CN(Cc3ccccc3)C[C@H]2C)cc1Cl (stereo in doubt)
29 | 19 nM | 220 nM | 0.77 nM | 12000 nM | 21 nM | – | – | CNc1cc(OC)c(C(=O)N[C@H]2CN(Cc3ccccc3)C[C@@H]2C)cc1Cl (stereo in doubt; 3c)
